Legend:
Casp6-K284A [1] = target: T1, Casp6-K284A (Homo sapiens, UniProt P55212, K284A); assay: C13 dose-response, fluorescence-based activity assay on Casp6-K284A; assay type: biochemical; details: Casp6-K284A; read-out: IC50 of C13 for Casp6-K284A (Fig. 4f)
T1 construct: it only partially self-cleaved at the TEVD193 site generating ΔCasp6, LS-L and SS fragments; His (C); made in house; host or cells: E. coli BL21(DE3)pLysS
T1 sequence (P55212 24-193): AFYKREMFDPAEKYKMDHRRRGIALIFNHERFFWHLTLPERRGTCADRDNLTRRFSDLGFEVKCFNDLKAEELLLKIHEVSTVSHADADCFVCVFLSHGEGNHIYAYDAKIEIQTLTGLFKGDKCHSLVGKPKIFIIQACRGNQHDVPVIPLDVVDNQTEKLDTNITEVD
T1 sequence (P55212 194-293 K284A): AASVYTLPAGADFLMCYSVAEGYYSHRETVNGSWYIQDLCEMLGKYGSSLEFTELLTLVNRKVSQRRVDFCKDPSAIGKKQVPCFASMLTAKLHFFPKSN
Text: (§1) Figure 4 Compounds S10G and C13 inhibit Casp6 through a noncompetitive mode of inhibition. (a) Michaelis-Menten kinetic plots of Casp6 enzymatic activity in presence of 1% DMSO or increasing doses S10G (top) and C13 (bottom). Data points represent mean ± SD of three independent experiments. (b) Lineweaver-Burk plots of Casp6 inhibition with S10G (top) and C13 (bottom). Red circle indicates the point where lines converge. (c) The relationship between the slopes of lines in Lineweaver-Burk plot analyses in panel (b) and inhibitor concentration. (d) Plots of IC50 values for S10G (top) and C13 (bottom) with varying concentrations of Ac-VEID-AFC substrate. Data points represent mean ± SD from three independent experiments for each substrate concentration. (e) Binding model of C13 into CASP6 putative allosteric site, derived from molecular docking. Left: C13 (green sticks) occupies the putative allosteric site (white surface and lines; Ala-mutated residues L200 and K284 shown as purple sticks). […] Data points on the graph represent the mean ± SD, and calculated Ki values represent mean ± standard error (SE) from three independent experiments. […]

Casp6-K284A [2] = assay: as above; assay type: biochemical, human
Text: as §1

Casp6-K284A-LS-SS = target: T2, Casp6-K284A-LS-SS (Homo sapiens, UniProt P55212, K284A); assay: C13 dose-response and global-fit kinetics on Casp6-K284A-LS-SS; assay type: biochemical
T2 construct: obtained by co-expression and purification of LS and SS subunits of WT, L200A or K284A Casp6 from E. coli; His (C); made in house; host or cells: E. coli BL21(DE3)pLysS
T2 sequence (P55212 24-179 limits assumed): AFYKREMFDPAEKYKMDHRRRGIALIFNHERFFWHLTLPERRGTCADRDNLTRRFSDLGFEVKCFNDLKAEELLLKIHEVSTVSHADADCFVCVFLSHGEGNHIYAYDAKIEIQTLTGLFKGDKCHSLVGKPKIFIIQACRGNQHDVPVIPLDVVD
T2 sequence (P55212 194-293 K284A limits assumed): T1 sequence (P55212 194-293 K284A)
Text: Figure 4 Compounds S10G and C13 inhibit Casp6 through a noncompetitive mode of inhibition. (a) Michaelis-Menten kinetic plots of Casp6 enzymatic activity in presence of 1% DMSO or increasing doses S10G (top) and C13 (bottom). Data points represent mean ± SD of three independent experiments. (b) Lineweaver-Burk plots of Casp6 inhibition with S10G (top) and C13 (bottom). Red circle indicates the point where lines converge. (c) The relationship between the slopes of lines in Lineweaver-Burk plot analyses in panel (b) and inhibitor concentration. (d) Plots of IC50 values for S10G (top) and C13 (bottom) with varying concentrations of Ac-VEID-AFC substrate. Data points represent mean ± SD from three independent experiments for each substrate concentration. (e) Binding model of C13 into CASP6 putative allosteric site, derived from molecular docking. Left: C13 (green sticks) occupies the putative allosteric site (white surface and lines; Ala-mutated residues L200 and K284 shown as purple sticks). Right: predicted interactions with Casp6 allosteric pocket residues (pink balls polar, circled blue or red for basic and acidic, respectively. Green balls = hydrophobic. Dotted-arrow: blue and green for backbone and sidechain hydrogen-bond interactions, respectively. Blue shade = solvent exposed area). Dose-response curves of C13 for Casp6-WT and Casp6-K284A (f), and copurified LS and SS of Casp6-WT-LS-SS, Casp6-L200A-LS-SS, and Casp6-K284A-LS-SS (g). Data represent mean ± SD from at least three independent experiments. (h) Global fit of kinetics data to a noncompetitive (mixed) inhibition model for Casp6-WT-LS-SS (left panel, R^2 = 0.9635), Casp6-L200A-LS-SS (middle panel, R^2 = 0.9699), and Casp6-K284A-LS-SS (right panel, R^2 = 0.9794) in the presence of 0–50 µM C13. Data points on the graph represent the mean ± SD, and calculated Ki values represent mean ± standard error (SE) from three independent experiments.
To determine the importance of C13 interactions with L200 and K284 for C13 binding in the Casp6 allosteric pocket, we have generated Casp6-L200A and Casp6-K284A mutants and investigated inhibition with C13. In contrast to Casp6-WT, purified Casp6-L200A and Casp6-K284A underwent poor self-processing when overexpressed in E. coli from a construct encoding a full-length Casp6 (Fig. S5). Casp6-L200A partially self-processed at the TETD23 site generating full-length Casp6 and Casp6 without a prodomain (ΔCasp6). Casp6-K284A underwent complete processing at the TETD23 site but, in contrast to Casp6-WT, it only partially self-cleaved at the TEVD193 site generating ΔCasp6, LS-L and SS fragments (Fig. S5). […] Fully processed forms of Casp6-WT-LS-SS, Casp6-L200A-LS-SS, and Casp6-K284A-LS-SS were obtained by co-expression and purification of LS and SS subunits of WT, L200A or K284A Casp6 from E. coli (Fig. S5). […]
Compounds, S10G (2.5 µM, 4.2 µM, 10 µM), and C13 (5 µM, 14 µM, 50 µM), were added to 20 nM active site titrated Casp6 and enzyme activity was measured with eight different Ac-VEID-AFC substrate concentrations (5.0 μM–200 μM) using fluorescence-based Casp6 activity assay as above. The apparent KM and Vmax values were determined through nonlinear regression analysis of Michaelis-Menten plots (v vs. [S]) using GraphPad Prism 5. The inhibition mode was determined from the pattern of converging Lineweaver-Burk plots (1/v vs. 1/[S])[54]. […]

COC(=O)c1cc(CNC(=O)C2Cc3ccccc3O2)cc(NC(=O)c2ccco2)c1 (stereo not shown) [Compound C13]
IC50 (Casp6-K284A [1]): 46.7 ± 18.5 µM
fold higher IC50 for Casp6-K284A than Casp6-WT (Casp6-K284A [2]): ~ 2.7 fold
fold higher IC50 for Casp6-K284A-LS-SS compared to Casp6-WT-LS-SS (Casp6-K284A-LS-SS): 1.5 fold
fold higher Ki for Casp6-K284A-LS-SS compared to Casp6-WT-LS-SS (Casp6-K284A-LS-SS): 1.6 fold
inhibition model (best global fit), Casp6-K284A-LS-SS (Casp6-K284A-LS-SS; Ac-VEID-AFC hydrolysis, increasing substrate and C13 concentrations): noncompetitive (mixed) model inhibition
IC50 (Casp6-K284A-LS-SS; copurified LS and SS, read-out: IC50 of C13 for Casp6-K284A-LS-SS (Fig. 4g)): 47.8 ± 6 µM
Ki (Casp6-K284A-LS-SS; global fit to noncompetitive (mixed) model, 0–50 µM C13, mean ± SE): 11.8 µM

Source: publication PMC6445123 (Scientific Reports, 2019)
